According to patent publication US20160229839A1, “Factor XIa Inhibitors” (Merck Sharp & Dohme Corp., priority 2013, published 2016):

Target: T1, purified human Factor XIa (Homo sapiens, UniProt P03951)
T1 construct: purified human Factor XIa; purchased Sekisui Diagnostics
Test: Factor XIa Assay (fluorogenic substrate Z-Gly-Pro-Arg-AFC)
Type: biochemical
Details: purified human Factor XIa 40 pM; Z-Gly-Pro-Arg-AFC 100 μM; 50 mM HEPES pH 7.4; read-out: hFXIa Ki (nM), Factor XIa inhibition
Procedure: The effectiveness of compound of the present invention as inhibitors of Coagulation Factor XIa can be determined using a relevant purified serine protease, and an appropriate synthetic substrate. The rate of hydrolysis of the chromogenic or fluorogenic substrate by the relevant serine protease was measured both in the absence and presence of compounds of the present invention. Assays were conducted at room temperature or at 37° C. […] A decrease in the rate of fluorescence change in the presence of inhibitor is indicative of enzyme inhibition. Such methods are known to one skilled in the art. The results of this assay are expressed as the inhibitory constant, Ki.
Factor XIa determinations were made in 50 mM HEPES buffer at pH 7.4 containing 150 mM NaCl, 5 mM CaCl2, and 0.1% PEG 8000 (polyethylene glycol; J T Baker or Fisher Scientific). Determinations were made using purified human Factor XIa at a final concentration of 40 pM (Sekisui Diagnostics) and he synthetic substrate, Z-Gly-Pro-Arg-AFC, TFA salt (Sigma #C0980) at a concentration of 100 μM.
Activity assays were performed by diluting a stock solution of substrate at least tenfold to a final concentration ≦0.1 Km into a solution containing enzyme or enzyme equilibrated with inhibitor. Times required to achieve equilibration between enzyme and inhibitor were determined in control experiments. Initial velocities of product formation in the absence (Vo) or presence of inhibitor (Vi) were measured. Assuming competitive inhibition, and that unity is negligible compared Km/[S], [I]/e, and [I]/e (where [S], [I], and e respectively represent the total concentrations, of substrate, inhibitor and enzyme), the equilibrium constant (Ki) for dissociation of the inhibitor from the enzyme can be obtained from the dependence of Vo/Vi on [I] shown in the following equation.

T1 sequence (P03951 388-625 limits assumed): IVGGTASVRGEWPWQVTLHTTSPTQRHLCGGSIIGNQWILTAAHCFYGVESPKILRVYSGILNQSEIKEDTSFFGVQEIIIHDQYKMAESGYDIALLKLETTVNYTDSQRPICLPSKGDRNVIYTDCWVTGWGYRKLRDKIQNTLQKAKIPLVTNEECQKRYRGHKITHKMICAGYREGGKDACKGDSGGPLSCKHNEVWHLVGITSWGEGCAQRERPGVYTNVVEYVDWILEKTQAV
T1 sequence (P03951 19-387 partner limits assumed): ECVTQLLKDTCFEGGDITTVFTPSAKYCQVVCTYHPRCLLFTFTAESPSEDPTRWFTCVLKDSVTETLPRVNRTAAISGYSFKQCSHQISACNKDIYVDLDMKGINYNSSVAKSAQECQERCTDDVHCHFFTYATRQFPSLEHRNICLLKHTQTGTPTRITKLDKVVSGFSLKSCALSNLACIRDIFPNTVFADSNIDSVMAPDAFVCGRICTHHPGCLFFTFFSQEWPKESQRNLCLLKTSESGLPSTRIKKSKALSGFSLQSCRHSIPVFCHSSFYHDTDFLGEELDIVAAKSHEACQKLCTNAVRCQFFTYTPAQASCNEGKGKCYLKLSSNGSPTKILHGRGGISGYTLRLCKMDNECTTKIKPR

SMILES | Ki [nM]
O=C(NC12CCC(C(=O)O)(CC1)CC2)[C@@H]1[C@H](c2ccccc2)CCCN1C(=O)/C=C/c1cc(Cl)ccc1-n1cnnn1 [Example 1-72, 4-((2S,3S)-1-((E)-3-(5-chloro-2-(1H-tetrazol-1-yl)phenyl)acryloyl)-3-phenylpiperidine-2-carboxamido)bicyclo[2.2.2]octane-1-carboxylic acid] | 63.6
O=C(Nc1ccc2cn[nH]c2c1)C1C(c2ccccc2)CCCN1C(=O)/C=C/c1cc(Cl)ccc1-n1cnnn1 (centres unmarked) [Example 1-61, (E)-1-(3-(5-chloro-2-(1H-tetrazol-1-yl)phenyl)acryloyl)-N-(1H-indazol-6-yl)-3-phenylpiperidine-2-carboxamide] | 91.6
O=C(O)c1ccc(NC(=O)C2C(C3CCCCC3)CCCN2C(=O)/C=C/c2cc(Cl)ccc2-n2cnnn2)cc1 (centres unmarked) [Example 1-5, (E)-1-(2-(3-(2-((4-carboxyphenyl)carbamoyl)-3-cyclohexylpiperidin-1-yl)-3-oxoprop-1-en-1-yl)-4-chlorophenyl)-1H-tetrazol-2-ium 2,2,2-trifluoroacetate] | 44
O=C(O)c1ccc(NC(=O)C2C(c3ccc(OC(F)(F)F)cc3)CCCN2C(=O)/C=C/c2cc(Cl)ccc2-n2cnnn2)cc1 (centres unmarked) [Example 1-35, (E)-4-(1-(3-(5-chloro-2-(1H-tetrazol-1-yl)phenyl)acryloyl)-3-(4-(tifluoromethoxy)phenyl)piperidine-2-carboxamido)benzoic acid] | 122
O=C(/C=C/c1cc(Cl)ccc1-n1cnnn1)N1CCCC(c2ccccc2)C1c1nc(-c2ccccn2)c[nH]1 (centres unmarked) [Example 1-41, (E)-3-(5-chloro-2-(1H-tetrazol-1-yl)phenyl)-1-(3-phenyl-2-(4-(pyridin-2-yl)-1H-imidazol-2-yl)piperidin-1-yl)prop-2-en-1-one] | 3270
O=C(O)c1ccc(NC(=O)C2C(c3cccc(F)c3)CCCN2C(=O)/C=C/c2cc(Cl)ccc2-n2cnnn2)cc1 (centres unmarked) [Example 1-10, (E)-4-(1-(3-(5-chloro-2-(H-tetrazol-1-yl)phenyl)acryloyl)-3-(3-fluorophenyl)piperidine-2-carboxamido)benzoic acid] | 18.1
CC(C)(C)OC(=O)C1CCC(NC(=O)C2C(C3CCCCC3)CCCN2C(=O)/C=C/c2cc(Cl)ccc2-n2cnnn2)CC1 (centres unmarked) [Example 1-4, (E)-tert-butyl 4-(1-(3-(5-chloro-2-(1H-tetrazol-1-yl)phenyl)acryloyl)-3-cyclohexylpiperidine-2-carboxamido)cyclohexanecarboxylate] | > 10000
CC(C)(C)OC(=O)c1ccc(NC(=O)C2C(C3CCCCC3)CCCN2C(=O)/C=C/c2cc(Cl)ccc2-n2cnnn2)cc1 (centres unmarked) [Example 1-3, (E)-tert-butyl 4-(1-(3-(5-chloro-2-(1H-tetrazol-1-yl)phenyl)acryloyl)-3-cyclohexylpiperidine-2-carboxamido)benzoate] | > 10000
O=C(O)c1ccc(NC(=O)C2CCC(c3ccccc3)CN2C(=O)/C=C/c2cc(Cl)ccc2-n2cnnn2)cc1 (centres unmarked) [Example 1-71, (E)-4-(1-(3-(5-chloro-2-(1H-tetrazol-1-yl)phenyl)acryloyl)-5-phenylpiperidine-2-carboxamido)benzoic acid] | 2610
O=C(O)c1ccc(NC(=O)[C@@H]2[C@H](c3ccccc3)CCCN2C(=O)/C=C/c2cc(Cl)ccc2-n2cnnn2)cc1 (single isomer, unassigned) [Example 1-57] | 7.6
N=C(N)N1CCC(C(=O)N2CCCC(c3ccccc3)C2C(=O)Nc2ccc(C(=O)O)cc2)CC1 (centres unmarked) [Example 1-8, 4-(1-(1-carbamimidoylpiperidine-4-carbonyl)-3-phenylpiperidine-2-carboxamido)benzoic acid] | 15.4
O=C(O)c1ccc(NC(=O)C2C(c3cccc(C(F)(F)F)c3)CCCN2C(=O)/C=C/c2cc(Cl)ccc2-n2cnnn2)cc1 (centres unmarked) [Example 1-17, ammonium (E)-4-(1-(3-(5-chloro-2-(1H-tetrazol-1-yl)phenyl)acryloyl)-3-(3-(trifluoromethyl)phenyl)piperidine-2-carboxamido)benzoate] | 2850
Nc1ccc(C2CCCN(C(=O)/C=C/c3cc(Cl)ccc3-n3cnnn3)C2C(=O)Nc2ccc(C(=O)O)cc2)cc1 (centres unmarked) [Example 1-33, (E)-4-(3-(4-aminophenyl)-1-(3-(5-chloro-2-(1H-tetrazol-1-yl)phenyl)acryloyl)piperidine-2-carboxamido)benzoic] | 46.7
O=C(O)c1ccc(NC(=O)[C@@H]2[C@H](c3ccccc3)CCCN2C(=O)/C=C/c2cc(Cl)ccc2-n2cnnn2)cc1 (racemic) [Example 1-2, (E)-1-(2-(3-(2-((4-carboxyphenyl)carbamoyl)-3-phenylpiperidin-1-yl)-3-oxoprop-1-en-1-yl)-4-chlorophenyl)-1H-tetrazol-2-ium 2,2,2-trifluoroacetate] | 80.9
O=C(O)C1CCC(NC(=O)C2C(c3ccc(F)cc3F)CCCN2C(=O)/C=C/c2cc(Cl)ccc2-n2cnnn2)CC1 (centres unmarked) [Example 1-19, ammonium (E)-4-(1-(3-(5-chloro-2-(1H-tetrazol-1-yl)phenyl)acryloyl)-3-(2,4-difluorophenyl)piperidine-2-carboxamido)cyclohexanecarboxylate] | > 10000
O=C(CCc1cc(Cl)ccc1-n1cnnn1)N1CCCC(c2ccccc2)C1c1nc(-c2ccc(Cl)cc2)c[nH]1 (centres unmarked) [Example 1-23, 3-(5-chloro-2-(1H-tetrazol-1-yl)phenyl)-1-(2-(4-(4-chlorophenyl)-1H-imidazol-2-yl)-3-phenylpiperidin-1-yl)propan-1-one] | > 10000
CC(C)(N)c1ccc(C(=O)N2CCCC(c3ccccc3)C2C(=O)Nc2ccc(C(=O)O)cc2)cc1 (centres unmarked) [Example 1-15, 4-(1-(4-(2-aminopropan-2-yl)benzoyl)-3-phenylpiperidine-2-carboxamido)benzoic acid] | > 10000
O=C(O)c1ccc(NC(=O)C2C(c3ccc(C(F)(F)F)cc3)CCCN2C(=O)/C=C/c2cc(Cl)ccc2-n2cnnn2)cc1 (centres unmarked) [Example 1-32, (E)-4-(1-(3-(5-chloro-2-(1H-tetrazol-1-yl)phenyl)acryloyl)-3-(4-(trifluoromethyl)phenyl)piperidine-2-carboxamido)benzoic acid] | 218

Continued, values first:

Ki [nM] | SMILES
> 10000 | CS(=O)(=O)c1ccc(-c2c[nH]c(C3C(c4ccccc4)CCCN3C(=O)/C=C/c3cc(Cl)ccc3-n3cnnn3)n2)cc1 (centres unmarked) [Example 1-29, (E)-3-(5-chloro-2-(1H-tetrazol-1-yl)phenyl)-1-(2-(4-(4-(methylsulfonyl)phenyl)-1H-imidazol-2-yl)-3-phenylpiperidin-1-yl)prop-2-en-1-one]
2640 | COC(=O)Nc1ccc(-c2c[nH]c([C@@H]3[C@H](CO)CCCN3C(=O)/C=C/c3cc(Cl)ccc3-n3cnnn3)n2)cc1 [Example 1-67, methyl (4-(2-((2S,3R)-1-((E)-3-(5-chloro-2-(1H-tetrazol-1-yl)phenyl)acryloyl)-3-(hydroxymethyl)piperidin-2-yl)-1H-imidazol-4-yl)phenyl)carbamate]
905 | O=C(/C=C/c1cc(Cl)ccc1-n1cnnn1)N1CCCC(c2ccccc2)C1c1nc(-c2cccnc2)c[nH]1 (centres unmarked) [Example 1-7, (E)-3-(5-chloro-2-(1H-tetrazol-1-yl)phenyl)-1-(3-phenyl-2-(4-(pyridin-3-yl)-1H-imidazol-2-yl)piperidin-1-yl)prop-2-en-1-one]
570 | O=C(/C=C/c1cc(Cl)ccc1-n1cnnn1)N1CCCC(c2ccccc2)C1c1nc(-c2cccnc2)c[nH]1 [Example 1-12, (E)-3-(5-chloro-2-(1H-tetrazol-1-yl)phenyl)-1-(3-phenyl-2-(4-(pyridin-3-yl)-1H-imidazol-2-yl)piperidin-1-yl)prop-2-en-1-one (2S,3S)]
> 10000 | O=C(/C=C/c1cc(Cl)ccc1-n1cnnn1)N1CCCC(c2ccccc2)C1c1nc(-c2ccc(Cl)cc2)c[nH]1 (centres unmarked) [Example 1-21, (E)-3-(5-chloro-2-(1H-tetrazol-1-yl)phenyl)-1-(2-(4-(4-chlorophenyl)-1H-imidazol-2-yl)-3-phenylpiperidin-1-yl)prop-2-en-1-one]
65.5 | COC(=O)Nc1ccc(-c2c[nH]c(C3C(c4ccccc4)CCCN3C(=O)/C=C/c3cc(Cl)ccc3-n3cnnn3)n2)cc1 (centres unmarked) [Example 1-46, (E)-methyl (4-(2-(1-(3-(5-chloro-2-(1H-tetrazol-1-yl)phenyl)acryloyl)-3-phenylpiperidin-2-yl)-1H-imidazol-4-yl)phenyl)carbamate]
> 10000 | COc1cccc(-c2c[nH]c(C3C(c4ccccc4)CCCN3C(=O)/C=C/c3cc(Cl)ccc3-n3cnnn3)n2)c1 (centres unmarked) [Example 1-28, (E)-3-(5-chloro-2-(1H-tetrazol-1-yl)phenyl)-1-(2-(4-(3-methoxyphenyl)-1H-imidazol-2-yl)-3-phenylpiperidin-1-yl)prop-2-en-1-one]
411 | COC(=O)Nc1ccc(-c2c[nH]c(C3C(c4ccccc4)CCCN3C(=O)/C=C/c3cc(Cl)ccc3-n3cnnn3)n2)c(Br)c1 (centres unmarked) [Example 1-44, (E)-methyl (3-bromo-4-(2-(1-(3-(5-chloro-2-(1H-tetrazol-1-yl)phenyl)acryloyl)-3-phenylpiperidin-2-yl)-1H-imidazol-4-yl)phenyl)carbamate]
